Legend:
[1] = Lipid clearance: lipid level in mouse liver tissue (LC-MS/MS); assay type: in vivo; conditions: Table 3E, mouse liver
Experimental: Quantification of Lipid by LC-MS/MS: Liver samples were homogenized following addition of 19 eq. (w/v) of water (DF=20). Protein was precipitated and analyzed against calibration standards prepared in matching blank. Chromatographic separation and quantification was accomplished with a LC-MS/MS System. Samples were injected and separated via HPLC A triple-quadrupole MS/MS system operated in positive ion mode was used for signal detection.

[2] = Apparent (surface) pKa of the LNP formulation (TNS assay); assay type: physicochemical; conditions: for pKa: Table 1A; for App. pKa: Table 3F
Method in brief: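 LNP (0.04 mg/mL mRNA) mixed with TNS reagent in 21 buffers spanning about pH 3-12, in triplicate; fluorescence plotted against pH as sigmoidal curve. Apparent pKa taken as […] curve inflection point; validated in 1× PBS and 20 mM Tris w/8% sucrose.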

hEPO mRNA [3] = assay: hEPO expression after subcutaneous administration to mice; assay type: in vivo, female CD-1 mice; conditions: for hEPO expression Lipid/Compound 18 ratio, 6 hr. / hEPO expression Lipid/Compound 18 ratio, AUC: 0.5 mpk; for Novel lipid/MC3 expression ratio, 6 hr. time point, s.c. hEPO 0.5 mpk: relative to MC3
Experimental: (§1) The effect of the lipids of the disclosure on protein expression upon subcutaneous administration was studied. Formulations containing lipids of the disclosure and an mRNA expressing luciferase or hEPO were administered subcutaneously to female CD-1 mice at 0.5 mpk. Expression levels were obtained via whole body luminescent imaging (BLI) at 3, 6 and 24 hours after injection and expression levels in liver, spleen and at the injection site were evaluated ex vivo after 24 hours. […] See also Tables 35 and 36, and FIGS. 19 and 27.
Table 36 summarizes the hEPO expression levels using various nanoparticle compositions of the disclosure as compared to the hEPO expression level using a formulation containing MC3 or Compound 18, following subcutaneous administration, as described above.

luciferase (Luc) mRNA [4] = assay: Luc expression, whole body bioluminescence after intravenous administration to mice; assay type: in vivo; conditions: Table 3E; intravenous
Method in brief: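 Luc mRNA nanoparticle formulations given intravenously to mice (n=6) at 0.5 mg/kg; whole-body bioluminescence imaged at 3, 6 and 24 h. CD-1 mice received IP D-luciferin (200 μL of 15 mg/mL) 15 min before imaging; total flux quantified by region of interest.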

[5] = Particle size and polydispersity index of nanoparticle compositions (Zetasizer Nano ZS); assay type: physicochemical
Method in brief: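 In 1×PBS, the compositions were sized on a Zetasizer Nano ZS, which also reported their polydispersity index.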

[6] = Encapsulation efficiency of RNA (QUANT-IT RIBOGREEN RNA assay); assay type: physicochemical
Method in brief: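 RiboGreen fluorescence (ex ~480, em ~520 nm) compared between intact samples and Triton X-100-lysed samples after 15 min at 37 °C in TE buffer, pH 7.5. Percent free RNA is the blank-corrected intact/disrupted ratio.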

luciferase (Luc) mRNA [7] = assay: Luc expression (total flux) after intramuscular administration; assay type: in vivo, mice; conditions: for i.m. Lipid/MC3 0.01 mpk, Luc, 6 h: Table 3B; for Novel lipid/MC3 expression ratio, 6 hr. time point, i.m. Luc: intramuscular, relative to MC3 formulation
Method in brief: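 Mice given a single intramuscular dose of lipid nanoparticle formulations carrying modified Luc mRNA, alone or with H10 mRNA, at 0.001 or 0.01 mpk total. Luciferase expression recorded as total flux.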

luciferase mRNA = assay: Luciferase expression after subcutaneous administration to mice; assay type: in vivo, female CD-1 mice; conditions: 0.5 mpk, relative to MC3
Experimental: as §1
Table 35 summarizes the luciferase expression levels using various nanoparticle compositions of the disclosure, and the luciferase expression levels using various nanoparticle compositions of the disclosure as compared to the luciferase expression level using an MC3 formulation after subcutaneous administration, as described above.

hEPO mRNA [8] = assay: hEPO expression after intramuscular administration to mice; assay type: in vivo; conditions: Table 3I, hEPO
Experimental: The expression of hEPO and cytokine induction in mice intravenously administered a nanoparticle composition at a dose of 0.5 mpk were measured at 3, 6, and 24 hours. […] The expression of hEPO in mice intramuscularly administered a nanoparticle composition from Table 1B at a dose of 0.01 mpk were measured at 3, 6, and 24 hours.
(§2) Blood collection and analysis for hEPO. Blood was collected from mice or rats via the tail vein and hEPO concentrations were determined using a hEPO ELISA assay.

hEPO mRNA [9] = assay: hEPO expression after intravenous administration to rats; assay type: in vivo, rat; conditions: Table 19B
Experimental: The expression of hEPO and cytokine induction in rats intravenously administered a nanoparticle composition at a dose of 2.0 mpk was measured at 6 h.
(§3) The expression of hEPO in rats intravenously administered a nanoparticle composition at a dose of 0.2 mpk or 2.0 mpk was measured at 6 hours. Table 16 summarize the ratio of hEPO expression levels using various nanoparticle compositions as compared to the hEPO expression level using MC3 formulation and the lipid levels in the liver measured 48 hours after administration, as described above. Tables 17 and 18 summarize the lipid levels in the liver and spleen measured 48 hours after administration of Compounds 28, 33, 53, and 54. Liver and spleen levels represent the average values calculated for 3 rats in each group. As is shown in Tables 17 and 18, less than 10% of Compounds 28, 33, 53, and 54 remained in the liver after 48 hours, while greater than 60% of MC3 remained.
The expression of hEPO induced by intravenous administration to rats of nanoparticle compositions at various doses was measured at 2, 4, 6, 8, 24, and 48 hour time points. FIGS. 3-6 respectively summarize the hEPO expression measured upon intravenous administration of formulations including Compounds 26, 18, 25, and MC3 to rat at various doses. The lipid levels of Compound 26 in the liver after 48 hours were about 19%.
(§4) 005781 The expression of hEPO and lipid levels in the liver and spleen in rats intravenously administered a nanoparticle composition at a dose of 0.2 mpk was measured at various time points. Compounds 18 and 25 were selected for comparison with MC3. Lipids were formulated according to the standard MC3 formulation described above. Rats were administered intravenously a single 0.2 mpk dose and expression monitored at 0.25, 0.5, 1, 2, 4, 8, 24, and 48 hours after administration.
as §2

[10] = Residual lipid levels in rat liver and spleen (UPLC-MS); assay type: in vivo; conditions: Table 19B, liver, 24 h
Experimental: At 48 h liver tissue was harvested for lipid quantification. To pre-weighed tissues, Milli-Q water was added (900 μL water per 100 mg tissue). Tissues were homogenized using an Omni probe homogenizer until uniform. 50 μL of samples and matrix calibration standards were aliquoted into a 96-well plate. 50 μL of blank matrix for matrix blanks and control blanks were aliquoted. 400 μL is spiking solution were manually added to all samples except matrix blanks. 400 μL of 50:50 ACN:IPA were manually added to matrix blanks. The plate was covered and the samples vortexed and centrifuged for 5 minutes at >3000 rpm. 200 μL of the samples were transferred into a clean 96-well plate for analysis. Samples were analyzed on a Waters Acquity UPLC using a Higgins Analytical Clipeus C8 column ([…], 30×2.1 mm) and a gradient of either 70-95% or 60-95% (Mobile Phase A: 5 mM ammonium formate in 50:50:1 H2O:MeOH:formic acid; Mobile Phase B: 5 mM ammonium formate in 100:1 MeOH:formic acid) over 1.3 min at 1.2 mL/min (column temperature 55° C.). Detection was based on electrospray ionization (ESI) in positive mode using a Sciex API5500 Mass Spectrometer.
as §3, §4

[11] = Table 1D, for subcutaneous administration, # formulated with hEPO mRNA
[12] = Table 1A, lipid:DSPC:cholesterol:PEG-DMG 50:10:38.5:1.5 mol %
[13] = Table 1E, compositions for subcutaneous administration
[14] = Table 1B, formulated with hEPO mRNA

Structure (SMILES)	pKa [2]	PDI [5, 11]	Size (nm) [5, 11]	EE (%) ([6]; Table 1A)	% EE [6, 11]	PDI ([5]; Table 1A)	Size (nm) [5, 12]	Lipid/MC3 6 h timepoint (hEPO mRNA [8])	Lipid/MC3 AUC (hEPO mRNA [8])	also measured
CCCCCCCCCC(=O)OC(C)CCCCCCN(CCO)CCCCCCCC(=O)OC(CCCCCCCC)CCCCCCCC (stereo not drawn) [Compound 98, 8-((8-(Heptadecan-9-yloxy)-8-oxooctyl)(2-hydroxyethyl)amino)octan-2-yl decanoate]	6.53	0.14	74.8 nm	94.4%	93.8%	–	–	–	–	% Remaining dose at 6 h [1]: 26.8%; % Remaining dose at 24 h [1]: 14.7%; hEPO expression Lipid/Compound 18 ratio, 6 hr. (hEPO mRNA [3]): 0.69; hEPO expression Lipid/Compound 18 ratio, AUC (hEPO mRNA [3]): 0.69; 6 h BLI Lipid/MC3 (luciferase (Luc) mRNA [4]): 3.16
CCCCCCCCCOC(=O)C(C)CCCCCCN(CCO)CCCCCCCOC(=O)C(CCCCCCCC)CCCCCCCC (stereo not drawn) [Compound 163, 7-((2-Hydroxyethyl)(7-methyl-8-(nonyloxy)-8-oxooctyl)amino)heptyl 2-octyldecanoate]	6.41	0.10	78.0 nm	93.2%	92.8%	0.10	88.3 nm	–	–	% Remaining dose at 6 h [1]: 34.8%; % Remaining dose at 24 h [1]: 19.4%; hEPO expression Lipid/Compound 18 ratio, 6 hr. (hEPO mRNA [3]): 0.99; hEPO expression Lipid/Compound 18 ratio, AUC (hEPO mRNA [3]): 0.96; 6 h BLI Lipid/MC3 (luciferase (Luc) mRNA [4]): 3.45
CCCCCCCCCOC(=O)CCCCCCCN(CCCCCCCC(=O)OC(CCCCCCCC)CCCCCCCC)CCCN/C(=N/C#N)N(C)C [Compound 168, Heptadecan-9-yl (Z)-8-((3-(2-cyano-3,3-dimethylguanidino)propyl)(8-(nonyloxy)-8-oxooctyl)amino)octanoate]	6.74	0.07	87.4 nm	91.4%	96.1%	0.20	102.3 nm	–	–	i.m. Lipid/MC3 0.01 mpk, Luc, 6 h (luciferase (Luc) mRNA [7]): 16.0; flux measured at 6 h relative to the MC3 formulation (luciferase (Luc) mRNA [7]; intramuscular administration (i.m.), in words): sixteen; App. pKa [2]: 6.90; Novel lipid/MC3 expression ratio, 6 hr. time point, s.c. hEPO 0.5 mpk (hEPO mRNA [3]): 2.36; Novel lipid/MC3 expression ratio, 6 hr. time point, s.c. Luc 0.5 mpk (luciferase mRNA): 0.58; PDI [5, 13]: 0.08; Size (nm) [5, 13]: 85.0 nm; % EE [6, 13]: 95%
CCCCCCCCCOC(=O)CCCCCCCN(CCCCCCCC(=O)OC(CCCCCCCC)CCCCCCCC)CCCN/C(=C/[N+](=O)[O-])NC [Compound 170, Heptadecan-9-yl (E)-8-((3-((1-(methylamino)-2-nitrovinyl)amino)propyl)(8-(nonyloxy)-8-oxooctyl)amino)octanoate]	6.31	–	–	96.7%	–	0.18	96.0 nm	5.9	5.7	i.m. Lipid/MC3 0.01 mpk, Luc, 6 h (luciferase (Luc) mRNA [7]): 5.3; App. pKa [2]: 6.60
CCCCCCCCCOC(=O)CCCCCCCN(CCCCCCCC(=O)OC(CCCCCCCC)CCCCCCCC)CCCNC(=O)COC [Compound 178, Heptadecan-9-yl 8-((3-(2-methoxyacetamido)propyl)(8-(nonyloxy)-8-oxooctyl)amino)octanoate]	6.90	–	–	94.7%	–	0.12	104.2 nm	10.4	9.3	Novel lipid/MC3 expression ratio, 6 hr. time point, i.m. Luc (luciferase (Luc) mRNA [7]): 7.14
CCCCCCCCCOC(=O)CCCCCCCN(CCCCCCCC(=O)OC(CCCCCCCC)CCCCCCCC)CCCN/C(=N/[N+](=O)[O-])NC [Compound 200, Heptadecan-9-yl (E)-8-((3-(3-methyl-2-nitroguanidino)propyl)(8-(nonyloxy)-8-oxooctyl)amino)octanoate]	–	–	–	97.65%	–	0.15	76.2 nm	2.6	2.7	AUC (hEPO) (hEPO mRNA [9]): 2.4e+07 pg·h/mL; Lipid/MC3 AUC (hEPO mRNA [9]; relative to MC3): 1.30; [hEPO] (hEPO mRNA [9]; species, dose and time not given): 1.72e+06 pg/mL; Novel lipid/MC3 expression ratio, 6 hr. time point, i.m. Luc (luciferase (Luc) mRNA [7]): 8.11; % dose remaining, liver, 24 h [10]: 0.36%; PDI [5, 14]: 0.19; Size (nm) [5, 14]: 95.3 nm; EE (%) [6, 14]: 97.3%
CCCCCCCCCOC(=O)CCCCCCCN(CCCCCCCC(=O)OC(CCCCCCCC)CCCCCCCC)CCCNC(=N)N [Compound 207, Heptadecan-9-yl 8-((3-guanidinopropyl)(8-(nonyloxy)-8-oxooctyl)amino)octanoate]	–	0.22	81.4 nm	–	102%	–	–	–	–	Novel lipid/MC3 expression ratio, 6 hr. time point, s.c. hEPO 0.5 mpk (hEPO mRNA [3]): 0
